Measurements published in patent US8017612B2, “Piperazine compound and use thereof as a HCV polymerase inhibitor” (priority 2006, dated 2011).
Structures can show the parent of a compound that is named as a salt.

Legend:
[1] = target: T1, HCV polymerase (NS5B) type 1a (Hepatitis C virus genotype 1a, UniProt P26664); assay: Assay of enzyme (HCV polymerase) inhibitory activity, type 1a enzyme; assay type: biochemical, HCV type 1a (cloned from the blood of patients)
T1 construct: made in house; host or cells: Escherichia coli (by the 'similar method' of the 1b enzyme)
Method in brief: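 Reactions ran 60 min at 25° C in 20 mM Tris-HCl pH 7.5, 5 mM MgCl2, 50 mM NaCl, holding genotype 1a NS5B (1.5 μg/ml, Δ47 C-terminus, 6His), substrate RNA 5 μg/ml, UTP 2 μM with tritiated UTP and other NTPs 50 μM. IC50 derived from incorporated radiolabel in filter-trapped RNA relative to uninhibited reaction.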

[2] = target: T2, HCV polymerase (NS5B) type 1b (Hepatitis C virus genotype 1b, UniProt P26663); assay: Assay of enzyme (HCV polymerase) inhibitory activity, type 1b enzyme; assay type: biochemical, HCV BK strain (type 1b)
T2 construct: a region encoding NS5B (J Virol 1991 March, 65(3), 1105-13, 544 amino acids after deletion of 47 amino acids on the C-terminal); 6xHis (C); made in house; host or cells: Escherichia coli
Method in brief: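 IC50 derived from [3H]UTP incorporation into TCA-insoluble RNA, compared with and without test compound. Reaction (25 °C, 60 min, Tris pH 7.5, 5 mM MgCl2): E. coli-expressed 1b NS5B Δ47 with His tag at 0.5 μg/ml, 5 μg/ml run-off substrate RNA, ATP/GTP/CTP 50 μM, UTP 2 μM.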

[3] = HCV polymerase inhibitory activity (IC50), 1a, type 1a enzyme 1.5 μg/ml, 25° C., 60 min
[4] = HCV polymerase inhibitory activity (IC50), 1b, type 1b enzyme 0.5 μg/ml, 25° C., 60 min
[5] = HCV polymerase inhibitory activity IC50, 1a, type 1a enzyme
[6] = HCV polymerase inhibitory activity IC50, 1b, type 1b enzyme

| SMILES | IC50 [1, 3] [nM] | IC50 [2, 4] [nM] | IC50 [1, 5] [nM] | IC50 [2, 6] [nM] |
| --- | --- | --- | --- | --- |
| CC(=O)N1CCN(S(=O)(=O)c2ccc3c(c2)CCCCC3)[C@@H](C(=O)NCc2ccc(C(C)C)cc2)C1 [Example 264, (R)-4-acetyl-1-(6,7,8,9-tetrahydro-5H-benzocycloheptene-2-sulfonyl)-piperazine-2-carboxylic acid 4-isopropyl-benzylamide] | < 100 | < 100 |  |  |
| CC(=O)N1CCN(S(=O)(=O)c2ccc(OC(F)(F)F)cc2)[C@@H](C(=O)NCCc2ccc(O)cc2)C1 [Example 675, (R)-4-acetyl-1-(4-trifluoromethoxy-benzenesulfonyl)-piperazine-2-carboxylic acid [2-(4-hydroxy-phenyl)-ethyl]-amide] |  |  | > 1000 | > 1000 |
| Cc1nc(N2CCN(S(=O)(=O)c3ccc(OC(F)(F)F)cc3)[C@@H](C(=O)NCc3ccc(N(C)C)nc3)C2)sc1C(=O)O [Example 387, 2-[(R)-3-[(6-dimethylamino-pyridin-3-ylmethyl)-carbamoyl]-4-(4-trifluoromethoxy-benzenesulfonyl)-piperazin-1-yl]-4-methyl-thiazole-5-carboxylic acid] | < 100 | < 100 |  |  |
| O=C(NCc1ccc(OC(F)(F)F)c(F)c1)[C@H]1CN(c2nc3nc(C4CC4)ncc3s2)CCN1S(=O)(=O)c1ccc(C(F)(F)F)cc1 [Example 1101, (R)-4-(5-cyclopropyl-thiazolo[4,5-d]pyrimidin-2-yl)-1-(4-trifluoromethyl-benzenesulfonyl)-piperazine-2-carboxylic acid 3-fluoro-4-trifluoromethoxy-benzylamide] |  |  | < 100 | < 100 |
| CC(=O)N1CCN(S(=O)(=O)c2ccc(OC(F)(F)F)cc2)[C@@H](C(=O)NCC2CCCCC2)C1 [Example 643, (R)-4-acetyl-1-(4-trifluoromethoxy-benzenesulfonyl)-piperazine-2-carboxylic acid cyclohexylmethyl-amide] | > 1000 | > 1000 |  |  |
| CC(=O)N1CCN(S(=O)(=O)c2ccc(C(C)C)cc2)[C@@H](C(=O)NCCc2ccccc2Cl)C1 [Example 149, (R)-4-acetyl-1-(4-isopropyl-benzenesulfonyl)-piperazine-2-carboxylic acid [2-(2-chloro-phenyl)-ethyl]-amide] | > 1000 | > 1000 |  |  |
| CC(C)c1ccc(CNC(=O)[C@H]2CN(c3cnc(C(=O)O)cn3)CCN2S(=O)(=O)c2ccc(OC(F)(F)F)cc2)cn1 [Example 408, (R)-3-[(6-isopropyl-pyridin-3-ylmethyl)-carbamoyl]-4-(4-trifluoromethoxy-benzenesulfonyl)-3,4,5,6-tetrahydro-2H-[1,2′]bipyrazinyl-5′-carboxylic acid] | < 100 | < 100 |  |  |
| CC(C)c1ccc(S(=O)(=O)N2CCN(C(=O)c3ccccc3)CC2C(=O)NCc2ccc(C(F)(F)F)cc2)cc1 (stereo not shown) [Example 123, 4-benzoyl-1-(4-isopropyl-benzenesulfonyl)-piperazine-2-carboxylic acid 4-trifluoromethyl-benzylamide] | > 1000 | > 1000 |  |  |
| CC(C)c1ccc(CNC(=O)[C@H]2CN(C(=O)Cc3ccncc3)CCN2S(=O)(=O)c2ccc(C(F)(F)F)cc2)cc1 [Example 2, (R)-4-(2-pyridin-4-yl-acetyl)-1-(4-trifluoromethyl-benzenesulfonyl)-piperazine-2-carboxylic acid 4-isopropyl-benzylamide] | 100 to 1000 | 100 to 1000 |  |  |
| CCC(F)(F)c1ccc(CNC(=O)[C@H]2CN(C(=O)Nc3nnc(C(C)=O)s3)CCN2S(=O)(=O)c2ccc(OC(F)(F)F)cc2)cc1 [Example 483, (R)-4-(4-trifluoromethoxy-benzenesulfonyl)-piperazine-1,3-dicarboxylic acid 1-[(5-acetyl-[1,3,4]thiadiazol-2-yl)-amide] 3-[4-(1,1-difluoro-propyl)-benzylamide]] | > 1000 | > 1000 |  |  |
| CCC(F)(F)c1ccc(CNC(=O)[C@H]2CN(c3cnc4c(n3)NS(=O)(=O)NC4)CCN2S(=O)(=O)c2ccc(OC(F)(F)F)cc2)cc1 [Example 650, (R)-4-(2,2-dioxo-1,2,3,4-tetrahydro-2λ^6-pyrazino[2,3-c][1,2,6]thiadiazin-7-yl)-1-(4-trifluoromethoxy-benzenesulfonyl)-piperazine-2-carboxylic acid 4-(1,1-difluoro-propyl)-benzylamide] | 100 to 1000 | < 100 |  |  |
| Cc1nc(Cl)c2sc(N3CCN(S(=O)(=O)c4ccc(C(F)(F)F)cc4)[C@@H](C(=O)NCc4ccc(OC(F)(F)F)cc4)C3)nc2n1 [Example 927, (R)-4-(7-chloro-5-methyl-thiazolo[4,5-d]pyrimidin-2-yl)-1-(4-trifluoromethyl-benzenesulfonyl)-piperazine-2-carboxylic acid 4-trifluoromethoxy-benzylamide] |  |  | < 100 | < 100 |
| COc1ccc(CNC(=O)C2CN(C(C)=O)CCN2S(=O)(=O)c2ccc(C(C)C)cc2)cc1OC (stereo not shown) [Example 198, 4-acetyl-1-(4-isopropyl-benzenesulfonyl)-piperazine-2-carboxylic acid 3,4-dimethoxy-benzylamide] | > 1000 | > 1000 |  |  |
| CC(=O)N1CCN(S(=O)(=O)c2cnc(Cl)c(Br)c2)C(C(=O)NCc2ccc(C(F)(F)F)cc2)C1 (stereo not shown) [Example 69, 4-acetyl-1-(5-bromo-6-chloro-pyridine-3-sulfonyl)-piperazine-2-carboxylic acid 4-trifluoromethyl-benzylamide hydrochloride] | > 1000 | > 1000 |  |  |
| COCc1ccc(CNC(=O)[C@H]2CN(c3nc(C)c(C(=O)O)s3)CCN2S(=O)(=O)c2ccc(OC(F)(F)F)cc2)cc1 [Example 451, 2-[(R)-3-(4-methoxymethyl-benzylcarbamoyl)-4-(4-trifluoromethoxy-benzenesulfonyl)-piperazin-1-yl]-4-methyl-thiazole-5-carboxylic acid] | < 100 | < 100 |  |  |
| CCCc1ccc(CNC(=O)[C@H]2CN(c3cnc4cncc(C(=O)O)c4n3)CCN2S(=O)(=O)c2ccc(OC(F)(F)F)cc2)cc1 [Example 824, 2-[(R)-3-(4-propyl-benzylcarbamoyl)-4-(4-trifluoromethoxy-benzenesulfonyl)-piperazin-1-yl]-pyrido[3,4-b]pyrazine-8-carboxylic acid] |  |  | < 100 | < 100 |
| O=C(NCc1ccc(OC(F)(F)F)cc1)[C@H]1CN(c2nc3nc(CO)ncc3s2)CCN1S(=O)(=O)c1ccc(OC(F)(F)F)cc1 [Example 1008, (R)-4-(5-hydroxymethyl-thiazolo[4,5-d]pyrimidin-2-yl)-1-(4-trifluoromethoxy-benzenesulfonyl)-piperazine-2-carboxylic acid 4-trifluoromethoxy-benzylamide] |  |  | < 100 | < 100 |
| CCC(F)(F)c1ccc(CNC(=O)[C@H]2CN(c3cnc4cnc(C)nc4n3)CCN2S(=O)(=O)c2ccc(OC(F)(F)F)cc2)cc1 [Example 692, (R)-4-(2-methyl-pteridin-7-yl)-1-(4-trifluoromethoxy-benzenesulfonyl)-piperazine-2-carboxylic acid 4-(1,1-difluoro-propyl)-benzylamide] |  |  | < 100 | < 100 |
| CCC(F)(F)c1ccc(CNC(=O)[C@H]2CN(c3cnc4c(n3)NC(=O)OC4)CCN2S(=O)(=O)c2ccc(OC(F)(F)F)cc2)cc1 [Example 616, (R)-4-(2-oxo-1,4-dihydro-2H-pyrazino[2,3-d][1,3]oxazin-7-yl)-1-(4-trifluoromethoxy-benzenesulfonyl)-piperazine-2-carboxylic acid 4-(1,1-difluoro-propyl)-benzylamide] | < 100 | < 100 |  |  |
| CC(=O)N1CCN(S(=O)(=O)c2ccc(C#N)cc2)C(C(=O)NCc2ccc(C(F)(F)F)cc2)C1 (stereo not shown) [Example 46, 4-acetyl-1-(4-cyano-benzenesulfonyl)-piperazine-2-carboxylic acid 4-trifluoromethyl-benzylamide] | > 1000 | > 1000 |  |  |
| CCCc1ccc(CNC(=O)[C@H]2CN(c3nc4c(s3)CN(C(=O)OCc3ccccc3)CC4)CCN2S(=O)(=O)c2ccc(OC(F)(F)F)cc2)cc1 [Example 534, 2-[(R)-3-(4-propyl-benzylcarbamoyl)-4-(4-trifluoromethoxy-benzenesulfonyl)-piperazin-1-yl]-6,7-dihydro-4H-thiazolo[5,4-c]pyridine-5-carboxylic acid benzyl ester] | < 100 | < 100 |  |  |
| CC(=O)N1CCN(S(=O)(=O)c2cc(C)cc(C)c2Oc2ccc(C#N)cc2)C(C(=O)NCc2ccc(C(F)(F)F)cc2)C1 (stereo not shown) [Example 27, 4-acetyl-1-[2-(4-cyano-phenoxy)-3,5-dimethyl-benzenesulfonyl]-piperazine-2-carboxylic acid 4-trifluoromethyl-benzylamide] | > 1000 | > 1000 |  |  |
| O=C(NCc1ccc(OC(F)(F)F)cc1)[C@H]1CN(c2nn3c(=O)cc(C(F)(F)F)nc3s2)CCN1S(=O)(=O)c1ccc(OC(F)(F)F)cc1 [Example 1038, (R)-4-(5-oxo-7-trifluoromethyl-5H-[1,3,4]thiadiazolo[3,2-a]pyrimidin-2-yl)-1-(4-trifluoromethoxy-benzenesulfonyl)-piperazine-2-carboxylic acid 4-trifluoromethoxy-benzylamide] |  |  | 100 to 1000 | 100 to 1000 |
